Experimental data reported in patent US20250346601A1, “HETEROCYCLIC COMPOUNDS FOR THE PREVENTION AND THERAPY OF CIRCADIAN RHYTHM DISORDERS” (UNIVERZITA PALACKEHO V OLOMOUCI, priority 2022, published 2025).
Where “and” joins values, the source holds several entries; their conditions need not be identical. Identical values can stand only once.

Tests used:
[1] = system: U2OS line transduced with the Bmal 1-Luc reporter; experiment: Period of the circadian rhythm in U2OS cells with Bmal1-Luc reporter (luminescence, cosinor analysis); assay type: cell-based, Human; settings: U2OS, DMSO control = 1.00
Experimental: Human osteosarcoma U2OS cells were grown in standard DMEM medium with 10% fetal bovine serum. U2OS cells were transduced with lentiviral particles containing a Bmall-Luc fusion reporter and selected under Blasticidin. The cell line was clonally expanded and a single monoclonal cell line was used for further experiments. Cells were cultured in a 384-well plate in growth medium to 90+% confluence. Test compound or vehicle (DMSO) was applied to recording medium with 100 U/ml penicillin, 100 ug/ml streptomycin, 1x GlutaMAX, 10% fetal bovine serum, and 0.1 mM Luciferin-EF. Luminescence was recorded every hour for the next 144 hours. Circadian rhythm analysis was performed using cosinor analysis.
The length of the period was expressed relative to the period of cells affected only by DMSO vehicle (their period is therefore 1.00). […] The overall effect on circadian oscillations unequivocally proves that the compounds of formula I can be also used to temporally modulate the concentration and activity of not only BMAL1, but also other components of the oscillator including the critical components PER2, CRY and CLOCK in time, as these are an essential part of the mechanism generating the rhythmic expression of the luminescent reporter used. The concentration and level of other proteins, whose rhythmic expression is controlled by an oscillator in the brain and peripheral tissues (so-called clock-controlled genes), are also necessarily affected. The influence of the compounds of formula I on the activity of oscillator components and subordinate genes also means influencing the physiological processes of the cell controlled by these genes and proteins. N^6-furfuryladenine was used as a reference compound. […] The ability to shift the phase of the circadian cycle can be seen in FIG. 2.

[2] = system: NIH3T3 line transfected with the Per2-Luc reporter; experiment: Period of the circadian rhythm in NIH3T3 fibroblasts with Per2-Luc reporter (luminescence, cosinor analysis); assay type: cell-based, mouse; settings: NIH3T3, DMSO control = 1.00
Experimental: NIH3T3 mouse embryonic fibroblasts were grown in standard DMEM with 10% fetal bovine serum. NIH3T3 cells were transfected with 1 μg of Per2-Luc reporter using GeneJuice and selected under hygromycin. The cell line was clonally expanded and a single monoclonal cell line was used for further experiments. Cells were cultured in a 96-well plate in growth medium to 90+% confluence. Test compound or vehicle (DMSO) was applied to recording medium with 100 U/ml penicillin, 100 μg/ml streptomycin, 1x GlutaMAX, 10% fetal calf serum and 0.1 mM Luciferin-EF (Promega Madison, WI, USA). Luminescence was recorded every hour for the next 144 hours. Circadian rhythm analysis was performed using cosinor analysis. Period length was expressed relative to the period of cells affected only by DMSO vehicle (their period length is therefore 1.00).

## OCCNc1nc(NCc2ccco2)c2ncn(C3CCOCC3)c2n1 [Compound 57]
[1]; 20 μM
  Period length ± standard error of the mean (expressed relative to control) at the indicated concentration: 20 μM: 1.16 ± 0.01

## c1coc(CNc2nc(N3CCOCC3)nc3c2ncn3C2CCOC2)c1 (stereo not drawn) [Compound 31]
[1]; 20 μM
  Period length ± standard error of the mean (expressed relative to control) at the indicated concentration: 20 μM: 1.13 ± 0.01

## Clc1nc(NCc2ccco2)c2ncn(C3CCOC3)c2n1 (stereo not drawn) [Compound 8]
[1]; 10 μM
  Period length ± standard error of the mean (expressed relative to control) at the indicated concentration: 1.04 ± 0.01
[1]; 20 μM
  Period length ± standard error of the mean (expressed relative to control) at the indicated concentration: 1.22 ± 0

## COCn1cnc2c(NCc3ccco3)ncnc21 [N-(furan-2-ylmethyl)-9-(methoxymethyl)-9H-purin-6-amine, reference compound]
[1]; 50 μM
  Period length ± standard error of the mean (expressed relative to control) at the indicated concentration: 50 μM: 1.01 ± 0.01
[2]; 50 μM
  Period length ± standard error of the mean (expressed relative to the control) at the indicated concentration: 50 μM: 0.96 ± 0.02

## c1coc(CNc2ncnc3c2ncn3C2CCCO2)c1 (stereo not drawn) [Compound 2]
[1]; 10 μM
  Period length ± standard error of the mean (expressed relative to control) at the indicated concentration: 10 μM: 1.05 ± 0.01

## CN(C)c1nc(NCc2ccco2)c2ncn(C3CCOCC3)c2n1 [Compound 53]
[1]; 20 μM
  Period length ± standard error of the mean (expressed relative to control) at the indicated concentration: 20 μM: 1.22 ± 0.01

## CCCNc1nc(NCc2ccco2)c2ncn(C3CCCCO3)c2n1 (stereo not drawn) [Compound 35]
[1]; 10 μM
  Period length ± standard error of the mean (expressed relative to control) at the indicated concentration: 10 μM: 1.05 ± 0.01
[2]; 50 μM
  Period length ± standard error of the mean (expressed relative to the control) at the indicated concentration: 50 μM: 1.38 ± 0.09

## Cc1ccc(CNc2nc(Cl)nc3c2ncn3C2CCCO2)o1 (stereo not drawn) [Compound 12]
[1]; 10 μM
  Period length ± standard error of the mean (expressed relative to control) at the indicated concentration: 10 μM: 1.16 + 0.01

## c1coc(CNc2ncnc3c2ncn3C2CCOCC2)c1 [Compound 5]
[1]; 10 μM
  Period length ± standard error of the mean (expressed relative to control) at the indicated concentration: 10 μM: 1.05 ± 0.01

## c1coc(CNc2ncnc3c2ncn3C2CCOC2)c1 (stereo not drawn) [Compound 3, N-(furan-2-ylmethyl)-9-(tetrahydrofuran-3-yl)-9H-purin-6-amine]
[1]; 10 μM
  Period length ± standard error of the mean (expressed relative to control) at the indicated concentration: 10 μM: 1.06 ± 0.01

## CC(C)Oc1nc(NCc2ccco2)c2ncn(C3CCOC3)c2n1 (stereo not drawn) [Compound 32]
[1]; 20 μM
  Period length ± standard error of the mean (expressed relative to control) at the indicated concentration: 20 μM: 1.09 ± 0

## Cc1ccc(CNc2nc(N(C)C)nc3c2ncn3C2CCCCO2)o1 (stereo not drawn) [Compound 51]
[2]; 0.83 μM
  Period length ± standard error of the mean (expressed relative to the control) at the indicated concentration: 1.05 ± 0.02
[2]; 10 μM
  Period length ± standard error of the mean (expressed relative to the control) at the indicated concentration: 1.08
[2]; 50 μM
  Period length ± standard error of the mean (expressed relative to the control) at the indicated concentration: 0.02; 50 μM: 1.74 ± 0.2

## Clc1nc(NCc2ccco2)c2ncn(C3CCCO3)c2n1 (stereo not drawn) [Compound 7]
[1]; 10 μM
  Period length ± standard error of the mean (expressed relative to control) at the indicated concentration: 10 μM: 1.13 ± 0.02

## Nc1ncnc2c1ncn2C1CCCO1 (stereo not drawn) [9-(tetrahydrofuran-2-yl)-9H-purin-6-amine, reference compound]
[1]; 20 μM
  Period length ± standard error of the mean (expressed relative to control) at the indicated concentration: 20 μM: 0.98 ± 0.02

## c1coc(CNc2nc(N3CCCC3)nc3c2ncn3C2CCCCO2)c1 (stereo not drawn) [Compound 40]
[1]; 10 μM
  Period length ± standard error of the mean (expressed relative to control) at the indicated concentration: 10 μM: 1.04 ± 0

## Cc1ccc(CNc2nc(Cl)nc3c2ncn3C2CCCCO2)o1 (stereo not drawn) [Compound 13, 2-chloro-N-[(5-methylfuran-2-yl)methyl]-9-(tetrahydro-2H-pyran-2-yl)-9H-purin-6-amine]
[2]; 10 μM
  Period length ± standard error of the mean (expressed relative to the control) at the indicated concentration: 10 μM: 1.19 ± 0.01

## CN(C)c1nc(NCc2ccco2)c2ncn(C3CCCCCO3)c2n1 (stereo not drawn) [Compound 61]
[1]; 10 μM
  Period length ± standard error of the mean (expressed relative to control) at the indicated concentration: 1.04 ± 0.01
[1]; 20 μM
  Period length ± standard error of the mean (expressed relative to control) at the indicated concentration: 1.15 ± 0.02

## CN(CCN)c1nc(NCc2ccco2)c2ncn(C3CCOC3)c2n1 (stereo not drawn) [Compound 27]
[1]; 20 μM
  Period length ± standard error of the mean (expressed relative to control) at the indicated concentration: 20 μM: 1.25 ± 0.01

## Cc1ccc(CNc2ncnc3nc[nH]c23)o1 [N^6-(5-methylfurfuryl)adenine, reference compound]
[1]; 50 μM
  Period length ± standard error of the mean (expressed relative to control) at the indicated concentration: 50 μM: 1.01 ± 0.02

## c1coc(CNc2nc(N3CCOCC3)nc3c2ncn3C2CCCCO2)c1 (stereo not drawn) [Compound 47]
[1]; 5 μM
  Period length ± standard error of the mean (expressed relative to control) at the indicated concentration: 1.08 ± 0.01
[1]; 20 μM
  Period length ± standard error of the mean (expressed relative to control) at the indicated concentration: 1.47 ± 0.03

## CN(C)CCNc1nc(NCc2ccco2)c2ncn(C3CCOC3)c2n1 (stereo not drawn) [Compound 28]
[1]; 20 μM
  Period length ± standard error of the mean (expressed relative to control) at the indicated concentration: 20 μM: 1.16 ± 0

## c1coc(CNc2nc(NC3CCCC3)nc3c2ncn3C2CCCCO2)c1 (stereo not drawn) [Compound 39]
[1]; 20 μM
  Period length ± standard error of the mean (expressed relative to control) at the indicated concentration: 20 μM: 1.05 ± 0.01

## CN(CCN)c1nc(NCc2ccco2)c2ncn(C3CCCCO3)c2n1 (stereo not drawn) [Compound 43]
[1]; 1 μM
  Period length ± standard error of the mean (expressed relative to control) at the indicated concentration: 1 μM: 1.08 ± 0.01

## CC(C)Oc1nc(NCc2ccco2)c2ncn(C3CCOCC3)c2n1 [Compound 59]
[1]; 20 μM
  Period length ± standard error of the mean (expressed relative to control) at the indicated concentration: 1.2 ± 0.01 and 1.11 ± 0.02

## CC(C)Oc1nc(NCc2ccco2)c2ncn(C3CCCC3)c2n1 [Compound 21]
[1]; 20 μM
  Period length ± standard error of the mean (expressed relative to control) at the indicated concentration: 20 μM: 1.26 ± 0.06

## OCCNc1nc(NCc2ccco2)c2ncn(C3CCCC3)c2n1 [Compound 19]
[1]; 1 μM
  Period length ± standard error of the mean (expressed relative to control) at the indicated concentration: 1.07 ± 0.01
[1]; 4 μM
  Period length ± standard error of the mean (expressed relative to control) at the indicated concentration: 1.21 ± 0.01

## CC(C)Oc1nc(NCc2ccco2)c2ncn(C3CCCCO3)c2n1 (stereo not drawn) [Compound 49, N-(furan-2-ylmethyl)-2-isopropoxy-9-(tetrahydro-2H-pyran-2-yl)-9H-purin-6-amine]
[1]; 20 μM
  Period length ± standard error of the mean (expressed relative to control) at the indicated concentration: 20 μM: 1.14 ± 0.01

## CNc1nc(NCc2ccco2)c2ncn(C3CCOC3)c2n1 (stereo not drawn) [Compound 25]
[1]; 20 μM
  Period length ± standard error of the mean (expressed relative to control) at the indicated concentration: 20 μM: 1.06 ± 0.01

## c1coc(CNc2nc(N3CCOCC3)nc3c2ncn3C2CCOCC2)c1 [Compound 58]
[1]; 20 μM
  Period length ± standard error of the mean (expressed relative to control) at the indicated concentration: 20 μM: 1.42 ± 0.04

## Clc1nc(NCc2ccco2)c2ncn(C3CCCCO3)c2n1 (stereo not drawn) [Compound 9]
[1]; 10 μM
  Period length ± standard error of the mean (expressed relative to control) at the indicated concentration: 1.09 ± 0.01
[1]; 20 μM
  Period length ± standard error of the mean (expressed relative to control) at the indicated concentration: 1.11 ± 0.01

## Clc1nc(NCc2ccco2)c2[nH]cnc2n1 [2-chloro-N^6-furfuryladenine, reference compound]
[1]; 20 μM
  Period length ± standard error of the mean (expressed relative to control) at the indicated concentration: 20 μM: 1.00 ± 0.03

## NCCNc1nc(NCc2ccco2)c2ncn(C3CCOC3)c2n1 (stereo not drawn) [Compound 29]
[1]; 20 μM
  Period length ± standard error of the mean (expressed relative to control) at the indicated concentration: 20 μM: 1.09 ± 0

## OCCNc1nc(NCc2ccco2)c2ncn(C3CCOC3)c2n1 (stereo not drawn) [Compound 30]
[1]; 20 μM
  Period length ± standard error of the mean (expressed relative to control) at the indicated concentration: 20 μM: 1.05 ± 0

## CN(C)CCNc1nc(NCc2ccco2)c2ncn(C3CCOCC3)c2n1 [Compound 55, N^2-(2-(dimethylamino)ethyl)-N^6-(furan-2-ylmethyl)-9-(tetrahydro-2H-pyran-4-yl)-9H-purine-2,6-diamine]
[1]; 4 μM
  Period length ± standard error of the mean (expressed relative to control) at the indicated concentration: 4 μM: 1.16 ± 0.01

## NCCNc1nc(NCc2ccco2)c2ncn(C3CCCCO3)c2n1 (stereo not drawn) [Compound 41]
[1]; 1 μM
  Period length ± standard error of the mean (expressed relative to control) at the indicated concentration: 1.03 ± 0.01
[1]; 5 μM
  Period length ± standard error of the mean (expressed relative to control) at the indicated concentration: 1.07 ± 0
[1]; 20 μM
  Period length ± standard error of the mean (expressed relative to control) at the indicated concentration: 1.32 ± 0.01

## CN(CCN)c1nc(NCc2ccco2)c2ncn(C3CCOCC3)c2n1 [Compound 54]
[1]; 5 μM
  Period length ± standard error of the mean (expressed relative to control) at the indicated concentration: 5 μM: 1.14 ± 0.02

## CNc1nc(NCc2ccco2)c2ncn(C3CCOCC3)c2n1 [Compound 52]
[1]; 20 μM
  Period length ± standard error of the mean (expressed relative to control) at the indicated concentration: 20 μM: 1.08 ± 0.01
